Experimental data: the NIST ThermoML archive (doi:10.1016/j.fluid.2012.10.024)

Experiment: mn = molality of the nth substance listed, in mol/kg
Conditions: 101 kPa, Liquid, Vibrating tube method

OCC1CCCCN1 (centres undefined) [2-(hydroxymethyl)piperidine] + O
mass density [kg/m3]
Conditions | m1 = 0.0476 | m1 = 0.0676 | m1 = 0.0864 | m1 = 0.1214 | m1 = 0.1524 | m1 = 0.1766 | m1 = 0.2009 | m1 = 0.2264 | m1 = 0.2609
293.15 K | 998.6 | 998.75 | 998.87 | 999.15 | 999.37 | 999.52 | 999.71 | 999.87 | 1000.11
298.15 K | 997.46 | 997.6 | 997.72 | 997.99 | 998.2 | 998.34 | 998.53 | 998.68 | 998.91
303.15 K | 996.06 | 996.19 | 996.31 | 996.57 | 996.77 | 996.91 | 997.09 | 997.24 | 997.46
308.15 K | 994.44 | 994.56 | 994.68 | 994.93 | 995.13 | 995.26 | 995.43 | 995.58 | 995.79
313.15 K | 992.59 | 992.74 | 992.85 | 993.1 | 993.28 | 993.41 | 993.58 | 993.72 | 993.92
318.15 K | 990.6 | 990.72 | 990.83 | 991.07 | 991.25 | 991.37 | 991.53 | 991.66 | 991.86
